Test results from US7803813B2, “Substituted 2-carbonylamino-6-piperidinaminopyridines and substituted 1-carbonylamino-3-piperidinaminobenzenes as 5-HT1F agonists” (Eli Lilly and Company, priority 2003, dated 2010).
Structures can show the parent of a compound that is named as a salt.

Tested on: rabbit saphenous vein
Assay: Rabbit saphenous vein contraction
Details: not given
Experimental: Bend the tips of two 30-gauge stainless steel hypodermic needles into an L-shape and slip them into the lumen of the polyethylene tubing. Gently push vein tissue from the cannula onto the needles. Separate the needles and attach the lower needle with thread to a stationary glass rod and the upper needle with thread to a force transducer (Statham UC-3). Mount the tissues in organ baths containing 10 mL of modified Krebs' solution. Maintain tissue bath solutions at 37° C. and […] […] Apply an initial optimum resting force of 4 grams to the vein tissue. Record isometric contractions as changes in grams of force on a Beckman Dynograph with Statham UC-3 transducers and microscale accessory attachments. […] Flush the bath, allow the tissue to re-equilibrate under a 4 gram force, add test compound and record the force of contraction. Add additional compound to achieve the next concentration in a range of compound concentrations to generate cumulative agonist concentration-response curves for each test compound. Tissues can be used to generate up to two agonist concentration-response curves. […] Two important parameters can be measured with this vasoconstriction assay, saphenous vein contraction (EC50) and maximal contraction as a percentage of the maximal KCl response (%max KCl).

| Structure (SMILES) | corrected vasoconstriction EC50 (EC50 divided by %max KCl) [µM] |
| --- | --- |
| CNS(=O)(=O)Cc1ccc2[nH]cc(CCN(C)C)c2c1 [sumatriptan] | 0.0103 |

Same assay, conditions: Oryctolagus cuniculus

| Structure (SMILES) | EC50 [µM] |
| --- | --- |
| CNS(=O)(=O)Cc1ccc2[nH]cc(CCN(C)C)c2c1 [sumatriptan] | 0.66 |

Tested on: not given
Assay: not given
Details: not given

| Structure (SMILES) | melting point |
| --- | --- |
| CN1CCC(Nc2cccc(NC(=O)c3ccc(F)cc3Cl)c2)CC1.Cl.Cl | 180 °C |
| CN1CCC(Nc2cccc(NC(=O)c3ccccc3OC(F)(F)F)c2)CC1.Cl.Cl | 159 to 162 °C |
| CN1CCC(N(C)c2cccc(NC(=O)c3ccc(F)cc3Cl)c2)CC1.Cl.Cl | 172 °C |
| CN1CCC(N(C)c2cccc(NC(=O)c3c(F)cc(F)cc3F)c2)CC1.Cl.Cl | 199 to 200 °C |
| CN1CCC(N(C)c2cccc(NC(=O)c3c(F)cccc3Cl)c2)CC1.Cl.Cl | 214 to 217 °C |
| Cl.Cl.O=C(Nc1cccc(NC2CCNCC2)c1)c1ccc(F)cc1Cl | 255 to 257 °C |
| CN1CCC(N(C)c2cccc(NC(=O)c3ccccc3Br)c2)CC1.Cl.Cl | 196 to 197 °C |
| CN1CCC(N(C)c2cccc(NC(=O)c3ccc(F)cc3F)c2)CC1.Cl.Cl | 165 to 168 °C |
| CN1CCC(N(C(=O)C2CC2)c2cccc(NC(=O)c3ccc(F)cc3Cl)c2)CC1.Cl | 133 to 136 °C |
| CN1CCC(N(C)c2cccc(NC(=O)c3c(Cl)cccc3Cl)c2)CC1.Cl | 164.2 °C |
| CN1CCC(N(C)c2cccc(NC(=O)c3ccc(F)cc3)c2)CC1.Cl | 76.1 °C |
| Cc1ccccc1C(=O)Nc1cccc(N(C)C2CCN(C)CC2)c1.Cl | 82.4 °C |
| CN1CCC(N(C)c2cccc(NC(=O)c3ccccc3C(F)(F)F)c2)CC1.Cl | 84.5 °C |
| C[C@H]1C[C@@H](Nc2cccc(NC(=O)c3ccc(F)cc3Cl)c2)CCN1.Cl | 202 °C (dec.) |
| CN1CCC(Nc2cccc(NC(=O)c3c(F)cccc3Cl)c2)CC1.Cl.Cl | 192 to 194 °C |
| C[C@H]1C[C@@H](Nc2cccc(NC(=O)c3ccc(F)cc3Cl)c2)CCN1C.Cl | 91 to 94 °C |
| C[C@@H]1C[C@H](Nc2cccc(NC(=O)c3ccc(F)cc3Cl)c2)CCN1.Cl | 182 to 185 °C |
| C[C@@H]1C[C@H](Nc2cccc(NC(=O)c3ccc(F)cc3Cl)c2)CCN1C.Cl | 159 to 162 °C |
| CN1CCC(Nc2cccc(NC(=O)c3c(F)cccc3F)c2)CC1.Cl.Cl | 198 °C (dec.) |
| CN1CCC(Nc2cccc(NC(=O)c3ccc(F)cc3F)c2)CC1.Cl.Cl | 262 °C (dec.) |
| CN1CCC(Nc2cccc(NC(=O)c3ccc(F)cc3C(F)(F)F)n2)CC1.Cl | 84.9 °C |
| CN1CCC(Nc2cccc(NC(=O)c3ccc(F)c(F)c3F)n2)CC1.Cl | 231.4 °C (dec.) |
| CN1CCC(Nc2cccc(NC(=O)c3c(F)cc(F)cc3F)c2)CC1.Cl.Cl | 257 °C (dec.) |
| CN1CCC(N(C)c2cccc(NC(=O)c3cccs3)n2)CC1.Cl | 126 to 128 °C |
| CN1CCC(N(C)c2cccc(NC(=O)C3CCCCC3)n2)CC1.Cl | 250 to 252 °C |
| CN1CCC(Nc2cccc(NC(=O)c3ccccc3Br)c2)CC1.Cl.Cl | 192 to 193 °C |
| CN(c1cccc(NC(=O)c2ccc(F)cc2)n1)C1CCNCC1.Cl | 152.4 °C |

| Structure (SMILES) | melting point |
| --- | --- |
| CN(c1cccc(NC(=O)c2ccc(F)cc2Cl)n1)C1CCNCC1.Cl | 152.1 °C |
| CCN1CCC(N(C)c2cccc(NC(=O)c3ccc(F)cc3)n2)CC1.Cl | 75.6 °C |
| CCN1CCC(N(C)c2cccc(NC(=O)c3ccc(F)cc3Cl)n2)CC1.Cl | 132.9 °C |
| CCCN1CCC(N(C)c2cccc(NC(=O)c3ccc(F)cc3)n2)CC1.Cl | 84.7 °C |
| CN1CCC(Nc2cccc(NC(=O)c3ccccc3Cl)c2)CC1.Cl.Cl | 206 to 208 °C |
| CCCN1CCC(N(C)c2cccc(NC(=O)c3ccc(F)cc3Cl)n2)CC1.Cl | 258 °C (dec.) |
| CN(c1cccc(NC(=O)c2ccc(F)cc2)n1)C1CCN(CC2CC2)CC1.Cl | 81.6 °C |
| CN(c1cccc(NC(=O)c2ccc(F)cc2Cl)n1)C1CCN(CC2CC2)CC1.Cl | 257.5 °C |
| CC(C)n1cc(CCN2CCC(N(C)c3cccc(NC(=O)c4ccc(F)cc4)n3)CC2)cn1.Cl | 85.8 °C |
| CC(C)n1cc(CCN2CCC(N(C)c3cccc(NC(=O)c4ccc(F)cc4Cl)n3)CC2)cn1.Cl | 96.7 °C |
| CN1CCC(N(C)c2cc(F)cc(NC(=O)c3sccc3Br)c2)CC1 (as salt: hydrochloric acid salt) | 175 to 180 °C |
| CN1CCC(N(C)c2cc(F)cc(NC(=O)c3ccc(F)cc3)c2)CC1 (as salt: hydrochloric acid salt) | 175 °C |
| CN1CCC(N(C)c2cc(F)cc(NC(=O)c3ccc(F)cc3F)c2)CC1 (as salt: hydrochloric acid salt) | 175 °C |
| CN1CCC(N(C)c2cc(F)cc(NC(=O)c3ccccc3Cl)c2)CC1 (as salt: hydrochloric acid salt) (hydrate or solvate) | 170 to 175 °C |
| CN1CCC(N(C)c2cccc(NC(=O)c3ccc(F)cc3Cl)n2)CC1.Cl (hydrate or solvate) | 229 to 231 °C |
| CN1CCC(N(C)c2cccc(NC(=O)c3ccc(F)cc3)n2)CC1.Cl (hydrate or solvate) | 250 to 252 °C |
| CN1CCC(N(C)c2cccc(NC(=O)c3ccncc3)n2)CC1.Cl (hydrate or solvate) | 274 to 277 °C |
| CN1CCC(N(C)c2cccc(NC(=O)c3ccco3)n2)CC1.Cl (hydrate or solvate) | 116 to 119 °C |
| CCC(=O)Nc1cccc(N(C)C2CCN(C)CC2)n1.Cl (hydrate or solvate) | 216 to 218 °C |
| CN1CCC(N(C)c2cccc(NC(=O)C3CCC3)n2)CC1.Cl (hydrate or solvate) | 258 to 260 °C |
| CN1CCC(N(C)c2cccc(NC(=O)C3CC3)n2)CC1.Cl (hydrate or solvate) | 258 to 260 °C |
| CN1CCC(N(C)c2cccc(NC(=O)c3c(F)cccc3F)n2)CC1.Cl (hydrate or solvate) | 308 °C (dec.) |
| CN1CCC(N(C)c2cccc(NC(=O)c3c(F)cc(F)cc3F)n2)CC1.Cl (hydrate or solvate) | 302 °C (dec.) |
| CN1CCC(N(C)c2cccc(NC(=O)c3ccccc3Cl)n2)CC1.Cl (hydrate or solvate) | 90 to 92 °C |
| CN1CCC(N(C)c2cccc(NC(=O)c3c(F)cccc3Cl)n2)CC1.Cl (hydrate or solvate) | 283 to 286 °C |
| CN1CCC(N(C)c2cccc(NC(=O)c3ccc(F)cc3C(F)(F)F)n2)CC1.Cl (hydrate or solvate) | 100 to 102 °C |
| CN1CCC(N(C)c2cccc(NC(=O)c3ccccc3OC(F)(F)F)n2)CC1.Cl (hydrate or solvate) | 102 to 104 °C |
